Assay results published in PubChem BioAssay AID256 (DTP/NCI, 2004).
Where “and” joins values, the source holds several entries; their conditions need not be identical. Identical values can stand only once. Inconclusive results and toxic doses are left out. Rule for the calls: active = survival T/C of 150% or more; inactive = T/C below 125% in these data.

System: CD2F1 mice, L1210 leukemia ip, survival T/C
Assay: NCI In Vivo Anticancer Drug Screen. Data for tumor model L1210 Leukemia (intraperitoneal) in CD2F1 (CDF1) mice
Conditions: higher = longer survival
Outline: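 Vehicle-treated tumor-bearing mice served as controls (C) for compound-treated mice (T). Reported figure is T divided by C.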

[1] = endpoint: mean survival time, dose: 100.0 mg/kg/injection, schedule: Q04DX003 (ip), vehicle: saline with Tween-80
[2] = endpoint: mean survival time, dose: 200.0 mg/kg/injection, schedule: Q04DX003 (ip), vehicle: saline with Tween-80
[3] = endpoint: mean survival time, dose: 400.0 mg/kg/injection, schedule: Q04DX003 (ip), vehicle: saline with Tween-80
[4] = endpoint: mean survival time, dose: 50.0 mg/kg/injection, schedule: Q01DX009 (ip), vehicle: saline with Tween-80
[5] = endpoint: mean survival time, dose: 100.0 mg/kg/injection, schedule: Q01DX009 (ip), vehicle: saline with Tween-80
[6] = endpoint: mean survival time, dose: 200.0 mg/kg/injection, schedule: Q01DX009 (ip), vehicle: saline with Tween-80
[7] = endpoint: mean survival time, dose: 400.0 mg/kg/injection, schedule: Q01DX009 (ip), vehicle: saline with Tween-80
[8] = endpoint: mean survival time, dose: 100.0 mg/kg/injection, schedule: Q01DX001 (ip), vehicle: saline with Tween-80
[9] = endpoint: mean survival time, dose: 200.0 mg/kg/injection, schedule: Q01DX001 (ip), vehicle: saline with Tween-80

Measured: T/C

NC1CCCCC1N.NC1CCCCC1N.[Cl-].[Ni] (stereo unspecified)
inactive: endpoint: mean survival time, dose: 50.0 mg/kg/injection, schedule: Q04DX002 (ip), vehicle: saline with Tween-80 110 % of control

CC(C/C=N/N1CCCCC1)Nc1ccnc2cc(Cl)ccc12 (stereo unspecified)
inactive: endpoint: mean survival time, dose: 0.78 mg/kg/injection, schedule: Q01DX009 (ip), vehicle: saline with Tween-80 95 % of control | endpoint: mean survival time, dose: 1.56 mg/kg/injection, schedule: Q01DX009 (ip), vehicle: saline with Tween-80 101 % of control | endpoint: mean survival time, dose: 3.13 mg/kg/injection, schedule: Q01DX009 (ip), vehicle: saline with Tween-80 102 % of control

O=C(O)CSCc1ccc(Cl)cc1Cl
inactive: endpoint: mean survival time, dose: 50.0 mg/kg/injection, schedule: Q01DX009 (ip), vehicle: Klucel (hydroxypropylcellulose) (HPC) 98 % of control | endpoint: mean survival time, dose: 100.0 mg/kg/injection, schedule: Q01DX009 (ip), vehicle: Klucel (hydroxypropylcellulose) (HPC) 87 % of control | endpoint: mean survival time, dose: 200.0 mg/kg/injection, schedule: Q01DX009 (ip), vehicle: Klucel (hydroxypropylcellulose) (HPC) 93 % of control

CCCCCCCCCCCCCCCCC(C)(O)C#CC(C)(O)CCCCCCCCCCCCCCCC (stereo unspecified)
inactive: endpoint: mean survival time, dose: 100.0 mg/kg/injection, schedule: Q01DX005 (ip), vehicle: other 97 % of control | endpoint: mean survival time, dose: 200.0 mg/kg/injection, schedule: Q01DX005 (ip), vehicle: other 97 % of control | endpoint: mean survival time, dose: 400.0 mg/kg/injection, schedule: Q01DX005 (ip), vehicle: other 101 % of control

COc1cccc(N2C(=O)CSC2=S)c1
inactive: [1] 107 % of control | [2] 96 % of control | [3] 106 % of control

Cc1ccc(S(=O)(=O)N/N=C2\CC3CCC2(C)C3(C)C)cc1 (stereo unspecified)
inactive: [4] 96 % of control | [5] 88 % of control | [6] 100 % of control

C[C@]12CCC(=O)C=C1CC[C@@H]1[C@@H]2[C@@H](O)C[C@@]2(C)[C@H]1CC[C@]2(O)C(=O)COC(=O)COCC(=O)O
inactive: endpoint: mean survival time, dose: 100.0 mg/kg/injection, schedule: Q01DX001 (sc), vehicle: steriod suspending solution 106 % of control | endpoint: mean survival time, dose: 200.0 mg/kg/injection, schedule: Q01DX001 (sc), vehicle: steriod suspending solution 108 % of control | endpoint: mean survival time, dose: 400.0 mg/kg/injection, schedule: Q01DX001 (sc), vehicle: steriod suspending solution 103 % of control

c1ccc(CN2CCc3cc4c(cc3C2)OCO4)cc1
inactive: endpoint: mean survival time, dose: 37.5 mg/kg/injection, schedule: Q01DX001 (ip), vehicle: saline 102 % of control | endpoint: mean survival time, dose: 75.0 mg/kg/injection, schedule: Q01DX001 (ip), vehicle: saline 102 % of control | endpoint: mean survival time, dose: 150.0 mg/kg/injection, schedule: Q01DX001 (ip), vehicle: saline 90 % of control

Cc1ccc2c(c1)C1(C)OC(C=CC1=O)O2 (stereo unspecified)
inactive: endpoint: median survival time, dose: 3.12 mg/kg/injection, schedule: Q01DX005 (ip), vehicle: Klucel (hydroxypropylcellulose) (HPC) 106 % of control | endpoint: median survival time, dose: 6.25 mg/kg/injection, schedule: Q01DX005 (ip), vehicle: Klucel (hydroxypropylcellulose) (HPC) 101 % of control | endpoint: median survival time, dose: 12.5 mg/kg/injection, schedule: Q01DX005 (ip), vehicle: Klucel (hydroxypropylcellulose) (HPC) 105 % of control | endpoint: median survival time, dose: 25.0 mg/kg/injection, schedule: Q01DX005 (ip), vehicle: Klucel (hydroxypropylcellulose) (HPC) 101 % of control and 105 % of control | endpoint: median survival time, dose: 50.0 mg/kg/injection, schedule: Q01DX005 (ip), vehicle: Klucel (hydroxypropylcellulose) (HPC) 103 % of control

CCOC(=O)C(CO)NC(=O)C[NH-].CCOC(=O)C(CO)NC(=O)C[NH-].[Cl][Pt+2][Cl] (stereo unspecified)
inactive: endpoint: mean survival time, dose: 100.0 mg/kg/injection, schedule: Q04DX003 (ip), vehicle: saline 111 % of control | endpoint: mean survival time, dose: 200.0 mg/kg/injection, schedule: Q04DX003 (ip), vehicle: saline 111 % of control | endpoint: mean survival time, dose: 400.0 mg/kg/injection, schedule: Q04DX003 (ip), vehicle: saline 114 % of control

CC(N)C(=O)NC(C(=O)O)C(C)O (stereo unspecified)
inactive: endpoint: mean survival time, dose: 25.0 mg/kg/injection, schedule: Q01DX009 (ip), vehicle: saline 102 % of control | endpoint: mean survival time, dose: 50.0 mg/kg/injection, schedule: Q01DX009 (ip), vehicle: saline 103 % of control | endpoint: mean survival time, dose: 100.0 mg/kg/injection, schedule: Q01DX009 (ip), vehicle: saline 105 % of control | endpoint: mean survival time, dose: 200.0 mg/kg/injection, schedule: Q01DX009 (ip), vehicle: saline 98 % of control | endpoint: mean survival time, dose: 400.0 mg/kg/injection, schedule: Q01DX009 (ip), vehicle: saline 98 % of control

COc1ccc(CCNC(=O)NC(C)(C)C)cc1OC
inactive: [5] 96 % of control | [6] 100 % of control | [7] 93 % of control

O/N=C1\CN2CCC1CC2
inactive: [8] 91 % of control

CCOC(=O)c1cc(=O)[nH]c2ccc(OC)cc12
inactive: [5] 98 % of control | [6] 104 % of control | [7] 104 % of control

CC(c1ccccc1)n1cncc1C(=O)O (stereo unspecified)
inactive: [8] 106 % of control | [9] 97 % of control | endpoint: mean survival time, dose: 400.0 mg/kg/injection, schedule: Q01DX001 (ip), vehicle: saline with Tween-80 95 % of control

CCOC(=O)C1C(=O)N(C)C(=O)N1Cc1ccccc1 (stereo unspecified)
inactive: endpoint: mean survival time, dose: 12.5 mg/kg/injection, schedule: Q01DX009 (ip), vehicle: other 93 % of control | endpoint: mean survival time, dose: 25.0 mg/kg/injection, schedule: Q01DX009 (ip), vehicle: other 89 % of control | endpoint: mean survival time, dose: 50.0 mg/kg/injection, schedule: Q01DX009 (ip), vehicle: other 101 % of control | endpoint: mean survival time, dose: 100.0 mg/kg/injection, schedule: Q01DX009 (ip), vehicle: other 101 % of control | endpoint: mean survival time, dose: 200.0 mg/kg/injection, schedule: Q01DX009 (ip), vehicle: other 101 % of control

O=C1COC(=O)N1
inactive: [1] 107 % of control | [2] 94 % of control | [3] 96 % of control

N#C[CH2][Sn]([I])([c]1ccccc1)[c]1ccccc1
inactive: endpoint: mean survival time, dose: 0.39 mg/kg/injection, schedule: Q01DX009 (ip), vehicle: saline 103 % of control | endpoint: mean survival time, dose: 0.78 mg/kg/injection, schedule: Q01DX009 (ip), vehicle: saline 100 % of control

N#CN=Nc1ccc(Cl)cc1
inactive: endpoint: mean survival time, dose: 9.5 mg/kg/injection, schedule: Q01DX001 (ip), vehicle: other 97 % of control | endpoint: mean survival time, dose: 19.0 mg/kg/injection, schedule: Q01DX001 (ip), vehicle: other 97 % of control | endpoint: mean survival time, dose: 38.0 mg/kg/injection, schedule: Q01DX001 (ip), vehicle: other 89 % of control

Cn1c(=O)[nH]c2c(nc(-c3ccc4c(c3)OCO4)n2C)c1=O
inactive: endpoint: mean survival time, dose: 7.8 mg/kg/injection, schedule: Q01DX005 (ip), vehicle: other 100 % of control | endpoint: mean survival time, dose: 15.6 mg/kg/injection, schedule: Q01DX005 (ip), vehicle: other 95 % of control | endpoint: mean survival time, dose: 31.3 mg/kg/injection, schedule: Q01DX005 (ip), vehicle: other 100 % of control | endpoint: mean survival time, dose: 62.5 mg/kg/injection, schedule: Q01DX005 (ip), vehicle: other 103 % of control

O=C1OC2CC1CCC2Br (stereo unspecified)
inactive: [1] 94 % of control | [2] 94 % of control | [3] 97 % of control

O=C1CSc2ccccc2N1CCN1C(=O)CSc2ccccc21
inactive: endpoint: mean survival time, dose: 100.0 mg/kg/injection, schedule: Q04DX003 (ip), vehicle: Klucel (hydroxypropylcellulose) (HPC) 90 % of control | endpoint: mean survival time, dose: 200.0 mg/kg/injection, schedule: Q04DX003 (ip), vehicle: Klucel (hydroxypropylcellulose) (HPC) 86 % of control | endpoint: mean survival time, dose: 400.0 mg/kg/injection, schedule: Q04DX003 (ip), vehicle: Klucel (hydroxypropylcellulose) (HPC) 86 % of control

CC(=O)C(=O)C1=C2CCCN2CCc2cc3c(cc21)OCO3
inactive: endpoint: mean survival time, dose: 12.5 mg/kg/injection, schedule: Q01DX009 (ip), vehicle: water 96 % of control | endpoint: mean survival time, dose: 25.0 mg/kg/injection, schedule: Q01DX009 (ip), vehicle: water 94 % of control | endpoint: mean survival time, dose: 50.0 mg/kg/injection, schedule: Q01DX009 (ip), vehicle: water 91 % of control | endpoint: mean survival time, dose: 100.0 mg/kg/injection, schedule: Q01DX009 (ip), vehicle: water 96 % of control

CCC(Cc1ccccc1)C1=NC(C)(C)CC(C)O1 (stereo unspecified)
inactive: [8] 97 % of control | [9] 89 % of control

O=C(O)CC(C(=O)O)c1ccc([N+](=O)[O-])cc1 (stereo unspecified)
inactive: [5] 93 % of control | [6] 93 % of control | [7] 97 % of control

Nc1nc2c(C(=O)N3CCCC3)nnn2c2ccccc12
inactive: endpoint: median survival time, dose: 6.25 mg/kg/injection, schedule: Q01DX009 (ip), vehicle: saline with Tween-80 100 % of control | endpoint: median survival time, dose: 12.5 mg/kg/injection, schedule: Q01DX009 (ip), vehicle: saline with Tween-80 98 % of control | endpoint: median survival time, dose: 25.0 mg/kg/injection, schedule: Q01DX009 (ip), vehicle: saline with Tween-80 97 % of control | endpoint: median survival time, dose: 50.0 mg/kg/injection, schedule: Q01DX009 (ip), vehicle: saline with Tween-80 95 % of control | endpoint: median survival time, dose: 100.0 mg/kg/injection, schedule: Q01DX009 (ip), vehicle: saline with Tween-80 95 % of control

COc1ccc(/C=N/NC(=O)CNC(=O)Nc2cccc([N+](=O)[O-])c2)cc1
inactive: [4] 89 % of control | [5] 93 % of control | [6] 93 % of control

CC(C)OC(CCCl)c1ccc(Cl)cc1 (stereo unspecified)
inactive: [5] 104 % of control | [1] 94 % of control | [6] 96 % of control | [2] 96 % of control | [7] 89 % of control | [3] 97 % of control
